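Values below derive from 48-hour exposures of cells grown in 96-well plates, with endpoints linearly interpolated between the two concentrations bracketing the appropriate inhibition level. Here, GI50 denotes the concentration required for 50% inhibition of growth. The concentration for full growth arrest is given as TGI.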
Columns and labels:
Experiment in all cases: NCI anticancer screen, dose series, 48 h
[1] = system: OVCAR-5 ovarian
[2] = system: SK-MEL-2 melanoma
[3] = system: HCT-15 colon
[4] = system: MOLT-4 leukemia
[5] = system: NCI-H23 lung
[6] = system: SF-539 CNS
[7] = system: HS 578T breast
[8] = system: SNB-75 CNS
[9] = system: NCI/ADR-RES ovarian
[10] = system: OVCAR-8 ovarian

SMILES | GI50 [1] [µM] | TGI [1] [µM] | GI50 [2] [µM] | GI50 [3] [µM] | TGI [3] [µM] | GI50 [4] [µM] | TGI [4] [µM] | GI50 [5] [µM] | TGI [5] [µM] | GI50 [6] [µM] | TGI [6] [µM] | GI50 [7] [µM] | TGI [7] [µM] | GI50 [8] [µM] | TGI [8] [µM] | GI50 [9] [µM] | TGI [9] [µM] | GI50 [10] [µM] | TGI [10] [µM] | TGI [2] [µM]
CO[C@@H]1/C=C(C)/C=C/[C@@H](C)/C=C(\C)C(=O)OC(/C(C)=C/C=C(\C)CNC(=O)[C@H](CO)NC=O)[C@@H](C)/C=C/C=C/[C@H](OC)CC/C=C(C)/C=C/C1 (some centres undefined) | 0.178 | 12.5 | < 0.005 | 0.0225 | 6.88 | < 0.005 | > 42.2 | < 0.005 | 0.266 | < 0.005 | 0.199 | < 0.005 | 24.9 | 0.242 | > 25.8 | 0.0587 | 15.4 | 0.0105 | 3.18 | 
O=C(N/N=C/c1ccc([N+](=O)[O-])cc1)c1ccc2nc(-c3ccc(Cl)cc3)[nH]c2c1 | 4.43 | 37.8 | 5.1 | 2.6 | 13 | 0.421 | 3.85 | 1.85 | 11.5 | 2.73 | 10.1 | 3.58 | 24.4 | 2.78 | 18 | 12.6 | > 100 | 2.89 | 13.7 | 21.9
CC(C)NC(=O)OCc1c(COC(=O)NC(C)C)c(-c2ccc(Cl)cc2)n2c1CCC2 | 3.3 | 13.5 | 4.23 | 4.07 | > 50.1 | 1.42 | > 26.2 | 2.15 | 12.5 | 2.53 | 9.72 | 2.91 | 11.8 | 1.7 | 8.44 | 3.05 | 16.8 | 4.1 | > 85.5 | 17.4
C=C(c1ccc(C(=O)N(C)c2ccccc2N)cc1)C(C)N1C(=O)[C@H]2CCCN2C(=O)c2ccccc21 (some centres undefined) | 11.5 | > 100 | 99.5 | 46.5 | > 100 | 24.8 | 97.9 | 61.6 | > 100 | 42.3 | > 100 | 53.1 | > 100 | 17.1 | 77.5 | 20.2 | > 100 | 43.7 | > 100 | > 100
O=C(O)c1cc2cc(OCc3ccccc3)c(OCc3ccccc3)cc2[nH]1 | 29.1 | 87.9 | 21.4 | 16.3 | 36.4 | 25 | > 100 | 17.2 | 38.1 | 19.9 | 44 | 22 | 64.5 | 17.3 | 55.6 | 20.2 | 49.1 | 26.9 | 95.9 | 44.7
O=C(c1ccco1)c1c(C(F)(F)F)n([O-])c2ccccc2[n+]1=O | 3.68 | 13.4 | 1.48 | 0.785 | 3.85 | 0.102 | 0.564 | 1.21 | 7.26 | 0.28 | 0.712 | 1.75 | 13.1 | 8.36 | 25.1 | 0.879 | 12.7 | 1.23 | 22.5 | 6.19
NC1=NC(c2ccc(Cl)cc2)C2=C(N1)/C(=C/c1ccc(Cl)cc1)CCC2 (centres undefined) | 25.2 | 63.3 | 37.7 | 9.13 | 26.9 | 9.47 | 57 | 5.98 | 26.7 | 19.9 | > 78 | 7.97 | > 29.9 | 16.4 | 59.3 | 12.2 | > 100 | 4.24 | > 32.4 | > 70.2
C=C1C(=O)O[C@H]2[C@H]1CC/C(COC(=O)NCCc1c[nH]c3ccc(OC)cc13)=C\CC[C@@]1(C)O[C@@H]21 | 1.82 | 4 | 1.84 | 1.14 | 2.45 | 2.22 | 5.88 | 2.25 | 5.84 | 1.78 | 4.01 | 6.42 | 36.9 | 10 | 21.7 | 7.57 | 29.2 | 1.97 | 5.23 | 4.18
C=C1C(=O)O[C@H]2[C@H]1CC/C(COC(=O)CSCC(=O)OC/C1=C/CC[C@@]3(C)O[C@H]3[C@H]3OC(=O)C(=C)[C@@H]3CC1)=C\CC[C@@]1(C)O[C@@H]21 | 1.85 | 3.86 | 2.12 | 1.25 | 2.69 | 0.514 | 2.81 | 2.26 | 7.07 | 2.04 | 5.08 | 3.52 | 19.3 | 3.13 | 10.5 | 12 | 40.2 | 1.48 | 4.21 | 5.62

— PubChem BioAssay (NCI)
